Assays:
[1] = tested on: SW620 cells; test: Cell cycle analysis by flow cytometry (propidium iodide), SW620; format: cell-based; settings: 500 nM, 24 h
Procedure: (§1) Cell cycle analyses and evaluation of apoptosis were performed by flow cytometry using propidium iodide and Annexin V, respectively.
(§2) For cell cycle analyses, SW620 and HT29 cells were cultured in 100-mm culture dishes, grown to 70% confluence, and treated with 500 nM Formula (III) for 24 h. Cell monolayers were then incubated in trypsin—EDTA and resuspended in 1 mL of PBS. After three washes with PBS, the cell pellets were resuspended in ice cold 70% ethanol for 2 min and centrifuged 5 min at 1800 rpm. The cell pellets were treated with 1 mL of propidium iodide (PI) staining solution (PBS containing 50 μg/mL of PI, 0.5% Tween 20, 0.1 μg/mL RNase A) (BD Biosciencies) and incubated in the dark for 1 h. DNA content and cell cycle analyses were performed by using a FACS canto II flow cytometer and the CellQuest software (BD Biosciences).

[2] = tested on: a range of tyrosine and serine/threonine kinases; settings: biochemical assays; background statement; cited from earlier work
[3] = tested on: phosphorylated γH2AX in HT29 cells; test: Western blot of DNA damage marker phosphorylated γH2AX, HT29; format: cell-based; settings: 500 nM, time dependent up to 24 h
Procedure: (§3) Western-blot and phospho-array kits were used for evaluation of signaling intermediates. SW620 and HT29 cell lines were grown in DMEM 10% of FBS and at 70% confluence were treated with Formula (III) at 500 nM for 6, 12 and 24 hours. Cells were washed with phosphate-buffered saline (PBS) (137 mM NaCl, 2.7 mM KCl, 8 mM Na2HPO4, 1.5 mM KH2PO4) and lysed in ice-cold lysis buffer (20 mM Tris-HCl [pH 7.0], 140 mM NaCl, 50 mM EDTA, 10% glycerol, 1% Nonidet P-40, 1 μM pepstatin, 1 μg/mL aprotinin, 1 μg/mL leupeptin, 1 mM phenylmethyl sulfonyl fluoride, 1 mM sodium orthovanadate). Lysates were centrifuged at 10000 g at 4° C. for 10 minutes. The protein level in the supernatants was quantified using BCA protein assay (Sigma Aldrich). A total of 50 μg of protein of each sample was used for analysis. Samples were then boiled in electrophoresis sample buffer and placed on 6%-15% sodium dodecyl sulfate-polyacrylamide gel electrophoresis (SDS-PAGE) gels, depending on the molecular weight of the proteins to be analyzed. Briefly, after electrophoresis, proteins in gels were transferred to polyvinylidene difluoride membranes (Millipore Corporation). Membranes were blocked in Tris-buffered saline with Tween (TBST) (100 mM Tris [pH 7.5], 150 mM NaCl, 0.05% Tween 20) containing 1% of bovine serum albumin for 1 h and then incubated overnight with the corresponding antibody. […]

[4] = tested on: HT29 cells; test: Apoptosis by Annexin V flow cytometry, HT29; format: cell-based; settings: 48 hours
Procedure: as §1
(§4) For apoptosis analyses, SW620 and HT29 cell monolayers were incubated in trypsin—EDTA, washed twice with cold PBS, and then resuspended in binding buffer (10 mM HEPES free acid [pH 7.4], 140 mM NaCl, 2.5 mM CaCl2) at a concentration of 1×10^6 cells per mL. A total of 1×10^5 cells were incubated for 15 minutes in the dark with Annexin V-APC (BD Biosciences) and propidium iodide (PI) staining solution (5 μL Annexin […], 10 μL of PI [[…] final concentration], 400 μL binding buffer).

[5] = tested on: pS6 and Src in HT29 cells; test: Phospho-kinase dot blot array and Western blot, HT29; format: cell-based; settings: 500 nM, at 6 hours
Procedure: as §3

[6] = animal models; background statement; cited from earlier work
[7] = tested on: HT29 cells; test: Cell cycle analysis by flow cytometry (propidium iodide), HT29; format: cell-based; settings: 500 nM, 24 h
Procedure: as §1, §2

[8] = tested on: HT29 cells; test: MTT metabolization, HT29 cell proliferation; format: cell-based
Procedure: (§5) SW620, HT29 and SW48 were grown in DMEM; this medium was purchased from Sigma Aldrich, supplemented with 10% FBS, 100 mU/mL penicillin, 100 μg/mL streptomycin and 2 mM L-glutamine, in a 5% CO2 atmosphere at 37° C. These colorectal cancer cell lines were obtained from the American Type Culture Collection Cell Biology Collection (ATCC) (Manassas, Va.). The medium was changed every 2 days.
(§6) Cell proliferation and growth experiments were carried out using 3-(4,5-dimethylthiazol-2-yl)-2,5-diphenyltetrazolium bromide (MTT) uptake assays, where MTT is reduced to purple formazan by the mitochondria of living cells. Increase in cell number is detected by augmented MTT metabolization, and decrease in cell number is reflected by a decrease. SW620, HT29 and SW48 cells were plated at a density of 1×10^4 cells per well in 24-well plates and cultured overnight in DMEM supplemented with 10% FBS. The cells were treated with the drug at different concentrations to plot the dose—response curves in all cancer cell lines using in the study. […] After treatment, each well was replaced with 250 μL of fresh medium containing MTT ([…]) and incubated for 1 hour. The medium was then removed and 500 μL of dimethyl sulfoxide was added to each well. The plate was agitated in the dark for 5 minutes to dissolve the MTT-formazan crystals. The absorbance of the samples was recorded at 562 nm in a multi-well plate reader (BMG labtech). Results were plotted as the mean values of quadruplicates from a representative experiment that was repeated at least two independent times.
(§7) Combination index values less than 1 indicate synergism, values equal to 1 indicate an additive effect, whereas values greater than 1 indicate antagonism. Combination index values from three independent experiments were generated.

[9] = tested on: phosphorylated γH2AX in SW620 cells; test: Western blot of DNA damage marker phosphorylated γH2AX, SW620; format: cell-based; settings: 500 nM, time dependent up to 24 h
Procedure: as §3

[10] = tested on: SW620, HT29 and SW48 cells; test: MTT metabolization, colorectal cancer cell lines (IC50 dose, line not specified); format: cell-based; settings: dose used for time-response curve
Procedure: as §6

[11] = tested on: SW620 cells; test: MTT metabolization, SW620 cell proliferation; format: cell-based
Procedure: as §5, §6, §7

[12] = tested on: SW620 cells; test: Apoptosis by Annexin V flow cytometry, SW620; format: cell-based; settings: 48 hours
Procedure: as §1, §4

[13] = tested on: pS6, AKT, Src and Lck in SW620 cells; test: Phospho-kinase dot blot array and Western blot, SW620; format: cell-based; settings: 500 nM, at 6 hours or 12 hours
Procedure: as §3

[14] = doses in the submicromolar (nanomolar) range

## C[C@]12O[C@H](C[C@H](O)[C@H]1O)n1c3ccccc3c3c4c(c5c6ccccc6n2c5c31)C(=O)NC4=O [Formula (III)]
[1]
  effect on cell cycle: strong arrest in G2/M phase
[2]
  affinity towards and inhibition of kinase activity: nanomolar and subnanomolar range
[3]
  phosphorylated levels of γH2AX (DNA damage): increase in the phosphorylated levels of γH2AX
[4]
  apoptosis (Annexin staining): induction of apoptosis
[5]
  phosphorylation/activation status of pS6 and Src: inhibited
[6]
  anti-tumoral activity in vivo: anti-tumoral activity
  toxicities in vivo: no evidence of toxicities
[7]
  effect on cell cycle: strong arrest in G2/M phase
[8]
  half-maximal inhibitory effect (MTT metabolization): nanomolar range
[8]; [14]
  growth inhibition: more than 80%
[8]; vs lapatinib, sunitinib, crizotinib, BEZ235, NVP-BSK805, dasatinib
  effect on proliferation compared with other inhibitors: strong effect
[9]
  phosphorylated levels of γH2AX (DNA damage): increase in the phosphorylated levels of γH2AX
[10]
  IC50: 500 nM
[11]
  half-maximal inhibitory effect (MTT metabolization): nanomolar range
[11]; [14]
  growth inhibition: more than 80%
[11]; vs lapatinib, sunitinib, crizotinib, BEZ235, NVP-BSK805, dasatinib, 0 to 2 μM, 72 h
  effect on proliferation compared with other inhibitors: strong effect
[12]
  apoptosis (Annexin staining): induction of apoptosis
[13]
  phosphorylation/activation status of kinases pS6, AKT, Src and Lck: strongly inhibited
